We go through 5 molecules from patent publication US10221163B2 (priority 2015, dated 2019).

Read-outs that look alike come from different tables or passages of the source.

In data set [1] the test system is Pseudomonas aeruginosa efflux− (MB9799), IMP-1. It counts as cell-based. Particulars: concentration restoring susceptibility to imipenem at 2 μg/mL in the presence of a class A, C, D serine β-lactamase inhibitor closely related to relebactam. The method in brief: (§1)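 Steps: add fixed imipenem and/or ceftazidime (usually CLSI breakpoint) and fixed AmpC-directed class A/C inhibitor to microbroth MIC wells; titrate MBL inhibitor; record concentration regaining susceptibility for each PAO1-derived strain; divide efflux+ by efflux− value.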

Data set [2] deals with Pseudomonas aeruginosa MB9798 vs MB9799. As to conditions: ratio MITC95 PA_9798/MITC95 PA_9799. The method in brief: as §1
A further data set concerns the target NDM-1 (Klebsiella pneumoniae, UniProt C7C422). Nature of the data set: biochemical. As to conditions: fluorescence assay, CCF2-FA substrate, 1 pM enzyme, 2 hours at 25° C.; read-out: NDM-1 IC50. The format is biochemical. In a few lines:
(§2)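 IC50 values derive from 4-parameter fits of percent inhibition against inhibitor concentration on semi-log axes. Activity was monitored by fluorescence with the CCF2-FA substrate after a 2-hour, 25° C incubation of compound, enzyme and substrate.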

The target in another data set is IMP-1 (Serratia marcescens, UniProt P52699). Nature of the data set: biochemical. It counts as biochemical. Particulars: fluorescence assay, CCF2-FA substrate, 2 pM enzyme, 2 hours at 25° C.; read-out: IMP-1 IC50. In a few lines: as §2
IMP-1, sequence (P52699 whole entry, looked up, species assumed): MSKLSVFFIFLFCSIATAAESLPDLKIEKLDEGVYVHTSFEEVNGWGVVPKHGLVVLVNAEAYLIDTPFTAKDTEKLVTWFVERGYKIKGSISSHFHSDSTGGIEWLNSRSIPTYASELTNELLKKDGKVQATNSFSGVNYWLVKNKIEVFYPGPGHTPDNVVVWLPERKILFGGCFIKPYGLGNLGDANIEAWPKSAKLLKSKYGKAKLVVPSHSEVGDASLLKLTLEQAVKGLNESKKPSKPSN
The test system of data set [3] is Pseudomonas aeruginosa efflux+ (MB9798), IMP-1. The format is cell-based. As to conditions: concentration restoring susceptibility to imipenem at 2 μg/mL in the presence of a class A, C, D serine β-lactamase inhibitor closely related to relebactam. In a few lines: as §1
Data set [4] has as its system Escherichia coli expressing NDM-1 (CLB30005, CLB30016). The format is cell-based. Particulars: with imipenem 1 μg/ml; for Escherichia coli expressing NDM-1 (CLB30016) MITC95: 95% inhibition of bacterial growth; for Escherichia coli MITC95: NDM-1 strain, 95% inhibition of growth. In a few lines:
(§3)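 Imipenem 1 μg/ml + inhibitor; MBL-expressing clinical strains in 1.1×CAMHB, inoculum from saline suspension diluted 1:100; 35° C, 22–24 h; absorbance read-out.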

Data set [5] has as its system Klebsiella pneumoniae expressing VIM-1 (IHMA599644). The format is cell-based. Particulars: for Klebsiella pneumoniae expressing VIM-1 (IHMA599644) MITC95: with imipenem 1 μg/ml, 95% inhibition of bacterial growth; for Klebsiella pneumoniae MITC95: VIM-1 strain IHMA599644, with imipenem 1 μg/ml, 95% inhibition of growth. The method in brief:
as §3

Data set [6] has as its system Serratia marcescens expressing IMP-1 (CL5741). The format is cell-based. As to conditions: for Serratia marcescens expressing IMP-1 (CL5741) MITC95: with imipenem 1 μg/ml, 95% inhibition of bacterial growth; for Serratia marcescens MITC95: IMP-1 strain CL5741, with imipenem 1 μg/ml, 95% inhibition of growth. The method in brief: as §3
A further data set deals with VIM-1 (Pseudomonas aeruginosa (strain ATCC 15692 / DSM 22644 / CIP 104116 / JCM 14847 / LMG 12228 / 1C / PRS 101 / PAO1), UniProt A0A0F7KYQ8). Nature of the data set: biochemical. Particulars: CCF2-FA substrate, 30 pM enzyme, 2 hours at 25° C. The method in brief: as §2
Where [7] appears, read: fluorescence assay, read-out: VIM-1 IC50.

NDM-1, sequence (C7C422 whole entry, looked up, species assumed): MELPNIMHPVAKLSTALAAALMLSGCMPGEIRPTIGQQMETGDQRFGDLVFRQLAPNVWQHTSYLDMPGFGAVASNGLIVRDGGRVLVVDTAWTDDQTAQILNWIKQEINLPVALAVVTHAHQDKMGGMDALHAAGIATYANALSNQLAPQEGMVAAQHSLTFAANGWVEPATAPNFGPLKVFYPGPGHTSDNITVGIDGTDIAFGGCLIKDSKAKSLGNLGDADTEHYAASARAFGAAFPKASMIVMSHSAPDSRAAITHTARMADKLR

For orientation: IC50 means the concentration needed to halve the response being measured. Regarding `Nc1nc2c(-c3ccc(S(=O)(=O)N[C@H]4CN[C@H](CO)C4)c(S(N)(=O)=O)c3-c3nnn[nH]3)cccc2[nH]1` [Example 172, 4-(2-amino-1H-benzo[d]imidazol-4-yl)-N^1-((3R,5S)-5-(hydroxymethyl)pyrrolidin-3-yl)-3-(1H-tetrazol-5-yl)benzene-1,2-disulfonamide], in data set [1], the “P. aeruginosa expressing IMP-1, efflux − (MB9799) MITC95” value came to 0.7813 µM. Also, the Efflux ratio in data set [2] amounted to 0.50. Further, the IC50 was 0.05 nM on NDM-1; 0.509 nM at IMP-1; 0.159 nM against VIM-1 (VIM-1 IC50, fluorescence assay). In data set [3], the “P. aeruginosa expressing IMP-1, efflux + (MB9798) MITC95” value is 0.3906 µM. Besides, the “Escherichia coli expressing NDM-1 (CLB30016) MITC95” value in [4] amounted to 0.5859 µM. Also, the “Klebsiella pneumoniae expressing VIM-1 (IHMA599644) MITC95” value in data set [5] worked out at 1.563 µM. The “Serratia marcescens expressing IMP-1 (CL5741) MITC95” value in data set [6] stood at 0.7813 µM.

On to `NC[C@H](N)CNS(=O)(=O)c1ccc(-c2cccc3ccc(N)nc23)c(-c2nn[nH]n2)c1S(N)(=O)=O` [Example 371, (S)-4-(2-aminoquinolin-8-yl)-N1-(2,3-diaminopropyl)-3-(2H-tetrazol-5-yl)benzene-1,2-disulfonamide], for which, in data set [1], the “P. aeruginosa expressing IMP-1, efflux − (MB9799) MITC95” value is 1.563 µM. In addition, in data set [2], the Efflux ratio is 1.00. In addition, the concentration for half-maximal inhibition (IC50) was 0.0807 nM at NDM-1; 0.289 nM on IMP-1; 0.188 nM on VIM-1 (VIM-1 IC50, fluorescence assay). Further, the “P. aeruginosa expressing IMP-1, efflux + (MB9798) MITC95” value in data set [3] was 1.563 µM. Besides, the “Escherichia coli MITC95” value in data set [4] stood at 0.7813 µM. In [5], the “Klebsiella pneumoniae MITC95” value was 3.125 µM. In data set [6], the “Serratia marcescens MITC95” value turned out to be 3.125 µM.

`NCCNS(=O)(=O)c1ccc(-c2cccc(C(=O)NC[C@H](N)CO)c2N)c(-c2nn[nH]n2)c1S(N)(=O)=O` [Example 333, (S)-2-amino-N-(2-amino-3-hydroxypropyl)-4′-(N-(2-aminoethyl)sulfamoyl)-3′-sulfamoyl-2′-(2H-tetrazol-5-yl)-[1,1′-biphenyl]-3-carboxamide]: the “P. aeruginosa expressing IMP-1, efflux − (MB9799) MITC95” value in [1] was found to be 1.563 µM. Moreover, the Efflux ratio in [2] turned out to be 1.00. The IC50 is 1.01 nM at NDM-1, 3.21 nM on IMP-1 and 0.472 nM at VIM-1 (setting [7]). For the same molecule, the “P. aeruginosa expressing IMP-1, efflux + (MB9798) MITC95” value in data set [3] was 1.563 µM. Also, the “Escherichia coli MITC95” value in [4] turned out to be 1.563 µM. For the same molecule, the “Klebsiella pneumoniae MITC95” value in [5] was found to be 3.125 µM. Moreover, in data set [6], the “Serratia marcescens MITC95” value worked out at 1.563 µM.

For `NC[C@H](N)CNS(=O)(=O)c1ccc(-c2cccc3[nH]c(N)nc23)c(-c2nn[nH]n2)c1S(N)(=O)=O` [Example 370, (S)-4-(2-amino-1H-benzo[d]imidazol-4-yl)-N1-(2,3-diaminopropyl)-3-(2H-tetrazol-5-yl)benzene-1,2-disulfonamide], in data set [1], the “P. aeruginosa expressing IMP-1, efflux − (MB9799) MITC95” value was 0.7813 µM. Besides, the Efflux ratio in [2] was 1.00. For the same molecule, the concentration for half-maximal inhibition (IC50) at NDM-1 was 0.0459 nM; on IMP-1, 0.663 nM; against VIM-1 (VIM-1 IC50, fluorescence assay), 0.209 nM. Moreover, the “P. aeruginosa expressing IMP-1, efflux + (MB9798) MITC95” value in data set [3] came to 0.7813 µM. Moreover, in data set [4], the “Escherichia coli MITC95” value stood at 0.3906 µM. In addition, the “Klebsiella pneumoniae MITC95” value in data set [5] stood at 1.563 µM. Moreover, the “Serratia marcescens MITC95” value in data set [6] was determined as 1.172 µM.

As for `CNCCNS(=O)(=O)c1ccc(-c2cccc3sc(N)nc23)c(-c2nnn[nH]2)c1S(N)(=O)=O` [Example 31, 4-(2-amino-1,3-benzothiazol-4-yl)-N^1-[2-(methylamino)ethyl]-3-(1H-tetrazol-5-yl)benzene-1,2-disulfonamide], the “P. aeruginosa expressing IMP-1, efflux − (MB9799) MITC95” value in data set [1] worked out at 1.563 µM. In addition, the Efflux ratio in data set [2] amounted to 1.50. Further, the IC50 amounted to 2.59 nM on NDM-1, 2.02 nM at IMP-1 and 8.18 nM at VIM-1 (setting [7]). Moreover, the “P. aeruginosa expressing IMP-1, efflux + (MB9798) MITC95” value in data set [3] was found to be 2.344 µM. Further, the “Escherichia coli expressing NDM-1 (CLB30016) MITC95” value in [4] came to 9.375 µM. For the same molecule, the “Klebsiella pneumoniae expressing VIM-1 (IHMA599644) MITC95” value in data set [5] turned out to be 6.25 µM. Also, the “Serratia marcescens expressing IMP-1 (CL5741) MITC95” value in [6] was 2.344 µM.
